{"source": "PubChem BioAssay AID1259409", "about": "(Chemical Carcinogenesis Research Information System (CCRIS), 2018)", "origin": "cited, not measured here", "system": "rodent chemically induced tumor inhibition, incidence and multiplicity", "experiment": "CCRIS tumor inhibitor studies", "conditions": "Carcinogen: 4-(METHYLNITROSAMINO)-1-(3-PYRIDYL)-1-BUTANONE, 64091-91-4, Promoter: NONE USED; for tumour outcome (control, treated, inhibition, significance): Dose [Inhibitor]: 0"}
{"molecule": "S=C=NCCc1ccccc1", "values": [{"measurement": "tumour outcome (control, treated, inhibition, significance)", "setting": "3 UMOL/G OF DIET FOR 112 WK BEGINNING 1 WK PRIOR TO CARCINOGEN TREATMENT (STUDY DURATION: 112 WK), Route [Inhibitor]: ORAL, Species: RAT, Strain/Sex: F344/MALE, Target Tissue: Type of Lesion: PANCREAS (EXOCRINE): MALIGNANT TUMOR, Dose [Carcinogen]: 2 PPM IN DRINKING WATER FOR 111 WK", "value": "4/52 (8%), 0/59 (0%), 100%, p=0.005"}, {"measurement": "tumour outcome (control, treated, inhibition, significance)", "setting": "5 UMOL 1/D FOR 4 D ADMINISTERED PRIOR TO CARCINOGEN DOSE (STUDY DURATION: 116 D), Route [Inhibitor]: GAVAGE, Species: MOUSE, Strain/Sex: STRAIN-A, Target Tissue: Type of Lesion: LUNG: ADENOMA, Dose [Carcinogen]: 10 UMOL IN SALINE ADMINISTERED 2 HR POST LAST AGENT DOSE", "value": "100%, 93%, 7%, not calculated"}, {"measurement": "tumour outcome (control, treated, inhibition, significance)", "setting": "5 UMOL 1/D FOR 4 D ADMINISTERED PRIOR TO CARCINOGEN TREATMENT (STUDY DURATION: 116 D), Route [Inhibitor]: GAVAGE, Species: MOUSE, Strain/Sex: STRAIN A, Target Tissue: Type of Lesion: LUNG: ADENOMA, Dose [Carcinogen]: 10 UMOL ONCE 2 HR AFTER FINAL DOSE OF INHIBITOR", "value": "100%, 93%, 7%, not significant"}, {"measurement": "tumour outcome (control, treated, inhibition, significance)", "setting": "5 UMOL 1/D FOR 4 DAYS ADMINISTERED PRIOR TO CARCINOGEN TREATMENT (STUDY DURATION: 116 D), Route [Inhibitor]: GAVAGE, Species: MOUSE, Strain/Sex: STRAIN-A, Target Tissue: Type of Lesion: LUNG: ADENOMA, Dose [Carcinogen]: 10 UMOL ONCE 2 HR AFTER FINAL DOSE OF INHIBITOR", "value": "100%, 89%, 11%, not significant"}, {"measurement": "tumour outcome (control, treated, inhibition, significance)", "setting": "5 UMOL/D ADMINISTERED TO MICE HETEROZYGOUS (P53+/-) FOR P53 ALLELES FOR 4 CONSECUTIVE DAYS PRIOR TO CARCINOGEN DOSE (, Route [Inhibitor]: GAVAGE, Species: MOUSE, Strain/Sex: (A/J X TSG-P53)F1/FEMALE, Target Tissue: Type of Lesion: LUNG: ADENOMA, Dose [Carcinogen]: 10 UMOL ONCE", "value": "100%, 40%, 60%, p<0.0001"}, {"measurement": "tumour outcome (control, treated, inhibition, significance)", "setting": "5 UMOL/D ADMINISTERED TO MICE HOMOZYGOUS (P53+/+) FOR P53 ALLELES FOR 4 CONSECUTIVE DAYS PRIOR TO CARCINOGEN DOSE (ST, Route [Inhibitor]: GAVAGE, Species: MOUSE, Strain/Sex: (A/J X TSG-P53)F1/FEMALE, Target Tissue: Type of Lesion: LUNG: ADENOMA, Dose [Carcinogen]: 10 UMOL ONCE", "value": "100%, 36%, 64%, p<0.0001"}, {"measurement": "tumour outcome (control, treated, inhibition, significance)", "setting": "5 UMOL/D FOR 4 CONSECUTIVE DAYS (STUDY DURATION: 17 WK), Route [Inhibitor]: GAVAGE, Species: MOUSE, Strain/Sex: STRAIN-A/FEMALE, Target Tissue: Type of Lesion: LUNG: ADENOMA, Dose [Carcinogen]: 10 UMOL ONCE 2 HR POST LAST AGENT DOSE", "value": "100%, 89%, 11%, not calculated"}, {"measurement": "tumour outcome (control, treated, inhibition, significance)", "setting": "5 UMOL/D FOR 4 CONSECUTIVE DAYS PRIOR TO CARCINOGEN DOSE (STUDY DURATION: 18 WK), Route [Inhibitor]: GAVAGE, Species: MOUSE, Strain/Sex: STRAIN-A/FEMALE, Target Tissue: Type of Lesion: LUNG: ADENOMA, Dose [Carcinogen]: 10 UMOL ONCE", "value": "100%, 100%, 0%, not significant"}, {"measurement": "tumour outcome (control, treated, inhibition, significance)", "setting": "25 UMOL 1/D FOR 4 D ADMINISTERED PRIOR TO CARCINOGEN TREATMENT (STUDY DURATION: 116 D), Route [Inhibitor]: GAVAGE, Species: MOUSE, Strain/Sex: STRAIN-A, Target Tissue: Type of Lesion: LUNG: ADENOMA, Dose [Carcinogen]: 10 UMOL ONCE 2 HR AFTER FINAL DOSE OF INHIBITOR", "value": "100%, 30%, 70%, p<0.01"}, {"measurement": "tumour outcome (control, treated, inhibition, significance)", "setting": "25 UMOL/D FOR 4 CONSECUTIVE DAYS (STUDY DURATION: 17 WK), Route [Inhibitor]: GAVAGE, Species: MOUSE, Strain/Sex: STRAIN-A/FEMALE, Target Tissue: Type of Lesion: LUNG: ADENOMA, Dose [Carcinogen]: 10 UMOL ONCE 2 HR POST LAST AGENT DOSE", "value": "100%, 30%, 70%, p<0.01"}, {"measurement": "tumour outcome (control, treated, inhibition, significance)", "setting": "652 PPM IN DIET FOR 22 WK BEGINNING 1 WK PRIOR TO CARCINOGEN TREATMENT (STUDY DURATION: 98 WK), Route [Inhibitor]: ORAL, Species: RAT, Strain/Sex: F344/MALE, Target Tissue: Type of Lesion: LUNG: TUMOR, Dose [Carcinogen]: 1.5 MG/KG BW 3/WK FOR 20 WK", "value": "22/33 (67%), 6/36 (17%), 75%, p<0.001"}, {"measurement": "tumour outcome (control, treated, inhibition, significance)", "setting": "652 PPM IN DIET FOR 22 WK BEGINNING 1 WK PRIOR TO CARCINOGEN TREATMENT (STUDY DURATION: 98 WK), Route [Inhibitor]: ORAL, Species: RAT, Strain/Sex: F344/MALE, Target Tissue: Type of Lesion: NASAL CAVITY: TUMOR, Dose [Carcinogen]: 1.5 MG/KG BW 3/WK FOR 20 WK", "value": "28/36 (78%), 17/36 (47%), 40%, not significant"}, {"measurement": "tumour outcome (control, treated, inhibition, significance)", "setting": "1304 PPM IN DIET FOR 22 WK BEGINNING 1 WK PRIOR TO CARCINOGEN DOSE (STUDY DURATION: 98 WK), Route [Inhibitor]: ORAL, Species: RAT, Strain/Sex: F344/MALE, Target Tissue: Type of Lesion: NASAL CAVITY: TUMOR, Dose [Carcinogen]: 1.5 MG/KG BW 3/WK FOR 20 WK", "value": "28/36 (78%), 21/36 (58%), 26%, not significant"}, {"measurement": "tumour outcome (control, treated, inhibition, significance)", "setting": "1304 PPM IN DIET FOR 22 WK BEGINNING 1 WK PRIOR TO CARCINOGEN TREATMENT (STUDY DURATION: 98 WK), Route [Inhibitor]: ORAL, Species: RAT, Strain/Sex: F344/MALE, Target Tissue: Type of Lesion: LUNG: TUMOR, Dose [Carcinogen]: 1.5 MG/KG BW 3/WK FOR 20 WK", "value": "22/33 (67%), 3/36 (8%), 88%, p<0.0001"}, {"measurement": "outcome", "setting": "Dose [Inhibitor]: 3 UMOL/G DIET BEGINNING 1 WK PRIOR TO FIRST CARCINOGEN DOSE (STUDY DURATION: 104 WK), Route [Inhibitor]: ORAL, Species: RAT, Strain/Sex: F344/MALE, Target Tissue: Type of Lesion: ADRENAL GLAND: ADENOMA, Dose [Carcinogen]: 1.76 MG/KG 3/WK FOR 20 WK", "value": "0/40 (0%), 2/40 (5%), -5%, not calculated"}]}
